How the values were obtained:
[1] = molecular target: T1, 5-HT1A human receptors (Homo sapiens, UniProt P08908); experiment: 5-HT1A radioligand receptor binding assay ([3H]-8-OH-DPAT); conditions: membranes from CHO cells
T1 construct: expressed in transfected cells; host or cells: CHO cells
T1 sequence (P08908 1-422): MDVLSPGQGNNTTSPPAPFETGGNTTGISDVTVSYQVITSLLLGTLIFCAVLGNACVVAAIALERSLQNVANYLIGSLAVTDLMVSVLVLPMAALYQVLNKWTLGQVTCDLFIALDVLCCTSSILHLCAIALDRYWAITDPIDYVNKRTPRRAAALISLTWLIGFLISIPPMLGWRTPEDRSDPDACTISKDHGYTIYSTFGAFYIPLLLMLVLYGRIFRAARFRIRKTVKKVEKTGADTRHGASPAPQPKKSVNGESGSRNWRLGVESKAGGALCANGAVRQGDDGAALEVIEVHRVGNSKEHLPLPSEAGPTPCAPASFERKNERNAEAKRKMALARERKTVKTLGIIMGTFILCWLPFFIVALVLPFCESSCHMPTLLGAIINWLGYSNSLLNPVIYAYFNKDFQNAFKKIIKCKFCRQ
Experimental: 5-HT1A, Radioligand Receptor Binding Assay
Membranes from CHO cells, expressing 5-HT1A human receptors were suspended in incubation buffer.
Binding assays were performed in MultiProbe 204 pipetting system (Packard), according to a predetermined mapping, consistent with the software Screen. The compounds were tested in singlicate at one concentration (10^−7 M) in a total volume of 1000 μl. 980 μl of diluted membranes, 10 μl DMSO or unlabelled ligand, and 10 μl of [^3H]-8-OH-DPAT (0.6-0.7 nM) were incubated for 60 minutes at 27° C. The reaction was stopped by rapid filtration through Tomtec Cell Harvester (48 wells) using Filtermat B (presoaked in 0.1% PEI) filters. Filters were washed with ice-cold 50 mM Tris-HCl (pH 7.4) buffer (9×700 μl), dried, covered with MeltiLex B/HS scintillator sheets (Wallac) and heated at 80° C. to 90° C. for about 10 minutes, transferred into plastic sample bags (Wallac), sealed and put into 1024 Beta Plate scintillation counter (Wallac). Non-specific binding was determined in the presence of 5-HT (10^−5 M).
The specific radioligand binding to the receptor was defined by the difference between total binding and non-specific binding, determined in the presence of an excess of unlabelled ligand. Results were expressed as percentage of control specific binding obtained in the presence of the compounds. The affinity values (IC50) for the compounds were obtained by a nonlinear least squares regression analysis on the basis of a one binding site model.

[2] = molecular target: T2, D4 human receptors (Homo sapiens, UniProt P21917); experiment: D4 radioligand receptor binding assay ([3H] YM-09151-2); conditions: compound 10^−7 M, singlicate; membranes from CHO cells; [3H] YM-09151-2 0.15-0.25 nM
T2 construct: expressed in transfected cells; host or cells: CHO cells
T2 sequence (P21917 1-419): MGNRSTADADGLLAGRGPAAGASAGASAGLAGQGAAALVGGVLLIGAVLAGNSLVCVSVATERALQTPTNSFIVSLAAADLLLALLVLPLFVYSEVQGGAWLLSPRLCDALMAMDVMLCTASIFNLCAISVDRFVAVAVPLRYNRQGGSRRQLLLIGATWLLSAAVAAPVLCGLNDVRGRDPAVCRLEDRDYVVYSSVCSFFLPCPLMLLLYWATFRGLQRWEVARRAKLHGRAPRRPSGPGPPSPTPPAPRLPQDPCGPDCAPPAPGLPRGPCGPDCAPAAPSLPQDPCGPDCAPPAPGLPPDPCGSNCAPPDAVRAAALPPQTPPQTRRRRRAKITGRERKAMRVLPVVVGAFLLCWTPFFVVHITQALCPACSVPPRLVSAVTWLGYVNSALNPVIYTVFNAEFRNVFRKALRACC
Experimental: D4 Radioligand Receptor Binding Assay
Membranes from CHO cells, expressing D4 human receptors were suspended in incubation buffer.
Binding assays were performed in MultiProbe 204 pipetting system (Packard), according to a predetermined mapping, consistent with the software Screen. The compounds were tested in singlicate at one concentration (10^−7 M) in a total volume of 1000 μl (980 μl of diluted membranes, 10 μl DMSO or unlabelled ligand, and 10 μl of [^3H] YM-09151-2 (0.15-0.25 nM). After incubation for 120 minutes at 27° C., the reaction was stopped by rapid filtration through Tomtec Cell Harvester (48 wells) using Filtermat B (presoaked in 0.1% PEI) filters. Filters were washed with ice-cold 50 mM Tris-HCl (pH 7.4) buffer (9×700 μl), dried, covered with MeltiLex B/HS (Wallac) scintillator sheets and heated in oven at 80° C.-90° C. for about 10 minutes, transferred into plastic sample bags (Wallac), sealed and put into 1024 Beta Plate scintillation counter (Wallac). Non-specific binding was determined in the presence of clozapine dissolved in DMSO to a final concentration of 10^−5 M.
The specific radioligand binding to the receptor was defined by the difference between total binding and non-specific binding, determined in the presence of an excess of unlabelled ligand. Results were expressed as percentage of control specific binding obtained in the presence of the compounds.

[3] = molecular target: T3, 5-HT1A receptor (CHO/5-HT1A cells) (Homo sapiens, UniProt P08908); experiment: 5-HT1A functional assay (cAMP); assay type: cell-based; conditions: 10 μM compound, % inhibition of the cAMP accumulation induced by 10 μM FSK, read-out: 5-HT1A cAMP % Inhibition (agonist activity)
T3 construct: expressed in transfected cells; host or cells: CHO/5-HT1A cells
T3 sequence (P08908 1-422): T1 sequence (P08908 1-422)
Experimental: 5-HT1A Functional Assay (cAMP)
CHO/5-HT1A cells were random seeded at a density of about 200,000/well in 24 well plates the day prior to the experiment. On the day of the experiment, cells were pretreated for 15 minutes at 37° C. with 500 μM isobutylmethylxantine (IBMX) dissolved in culture medium without serum. Wells were then divided in different groups in duplicate as follows: control, 10 μM FSK, 10 μM FSK+1 μM 5-HT as positive standard and 10 μM FSK+10 μM of the different compound under evaluation. Sample solutions were added and incubated for additional 15 minutes at 37° C. After incubation, medium was aspirated and the reaction stopped by adding 200 μl of lysis buffer. Plates were shaken for 5 minutes, then the lysate was removed and samples were stored at 4° C. until the day of the assay. For the cAMP evaluation, samples were properly diluted and the cAMP content was measured by an enzyme immunoassay system.
Results are expressed as % inhibition of the cAMP accumulation induced by 10 μM FSK.

- inhibition at 0.1 µM ([1]; compound 10^−7 M, singlicate, [3H]-8-OH-DPAT 0.6-0.7 nM): 90%
- IC50 ([1]; [3H]-8-OH-DPAT, one binding site model, read-out: 5-HT1A Receptor Binding IC50): 3.3 nM
- inhibition at 0.1 µM [2]: 51%
- inhibition at 10 µM [3]: 49%
SMILES: O=c1n(C/C=C/CN2CCN(c3ncccn3)CC2)c2ccccc2n1CC1CCCCC1 [Compound 125]
